Reference: patent publication US8192962B2, “Processes for detecting toxic substances” (Daikin Industries, Ltd., priority 2001, dated 2012)

System: Transport facilitation protein genes
Assay: DNA chip mRNA expression in yeast, transport facilitation protein genes (Table 5)
Format: cell-based, Saccharomyces cerevisiae S288C
Procedure, shortened: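 Values are treated/untreated fluorescence ratios from a whole-genome yeast DNA chip hybridized over 12 hours at 65° C with Cy3- or Cy5-labelled cDNA from poly(A) mRNA. Log-phase S288C yeast in YPD at 25° C had received a single toxic chemical for two hours, dosed to slow growth without killing.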

**Q.** What does the source list for `CCCCC[C@H](O)CC(=O)CCc1ccc(O)c(OC)c1` [(13), gingerol]?
**A.** The level of expressed mRNA in the presence of chemical substance/The level of expressed mRNA in the absence of chemical substance (yeast gene YHL036W): 1.5; The level of expressed mRNA in the presence of chemical substance/The level of expressed mRNA in the absence of chemical substance (yeast gene YHL040C): 2.0; The level of expressed mRNA in the presence of chemical substance/The level of expressed mRNA in the absence of chemical substance (yeast gene YHL047C): 3.8; The level of expressed mRNA in the presence of chemical substance/The level of expressed mRNA in the absence of chemical substance (yeast gene YHR026W): 0.7; The level of expressed mRNA in the presence of chemical substance/The level of expressed mRNA in the absence of chemical substance (yeast gene YHR048W): 1.1; The level of expressed mRNA in the presence of chemical substance/The level of expressed mRNA in the absence of chemical substance (yeast gene YHR092C): 0.5; The level of expressed mRNA in the presence of chemical substance/The level of expressed mRNA in the absence of chemical substance (yeast gene YHR094C): 0.7; The level of expressed mRNA in the presence of chemical substance/The level of expressed mRNA in the absence of chemical substance (yeast gene YHR175W): 1.2; The level of expressed mRNA in the presence of chemical substance/The level of expressed mRNA in the absence of chemical substance (yeast gene YIL006W): 0.8; The level of expressed mRNA in the presence of chemical substance/The level of expressed mRNA in the absence of chemical substance (yeast gene YIL022W): 1.2; The level of expressed mRNA in the presence of chemical substance/The level of expressed mRNA in the absence of chemical substance (yeast gene YIL056W): 1.5; The level of expressed mRNA in the presence of chemical substance/The level of expressed mRNA in the absence of chemical substance (yeast gene YIL088C): 1.5; The level of expressed mRNA in the presence of chemical substance/The level of expressed mRNA in the absence of chemical substance (yeast gene YJL212C): 1.0; The level of expressed mRNA in the presence of chemical substance/The level of expressed mRNA in the absence of chemical substance (yeast gene YJR077C): 0.9; The level of expressed mRNA in the presence of chemical substance/The level of expressed mRNA in the absence of chemical substance (yeast gene YJR095W): 0.8; The level of expressed mRNA in the presence of chemical substance/The level of expressed mRNA in the absence of chemical substance (yeast gene YJR121W): 1.0; The level of expressed mRNA in the presence of chemical substance/The level of expressed mRNA in the absence of chemical substance (yeast gene YKL016C): 1.3; The level of expressed mRNA in the presence of chemical substance/The level of expressed mRNA in the absence of chemical substance (yeast gene YKL188C): 1.2; The level of expressed mRNA in the presence of chemical substance/The level of expressed mRNA in the absence of chemical substance (yeast gene YKL217W): 1.2; The level of expressed mRNA in the presence of chemical substance/The level of expressed mRNA in the absence of chemical substance (yeast gene YKL221W): 1.6; The level of expressed mRNA in the presence of chemical substance/The level of expressed mRNA in the absence of chemical substance (yeast gene YKR039W): 1.3; The level of expressed mRNA in the presence of chemical substance/The level of expressed mRNA in the absence of chemical substance (yeast gene YKR067W): 1.3; The level of expressed mRNA in the presence of chemical substance/The level of expressed mRNA in the absence of chemical substance (yeast gene YKR105C): 2.5; The level of expressed mRNA in the presence of chemical substance/The level of expressed mRNA in the absence of chemical substance (yeast gene YLL055W): 1.5; The level of expressed mRNA in the presence of chemical substance/The level of expressed mRNA in the absence of chemical substance (yeast gene YLR081W): 0.6; The level of expressed mRNA in the presence of chemical substance/The level of expressed mRNA in the absence of chemical substance (yeast gene YLR092W): 1.8; The level of expressed mRNA in the presence of chemical substance/The level of expressed mRNA in the absence of chemical substance (yeast gene YLR295C): 0.8; The level of expressed mRNA in the presence of chemical substance/The level of expressed mRNA in the absence of chemical substance (yeast gene YLR348C): 1.9; The level of expressed mRNA in the presence of chemical substance/The level of expressed mRNA in the absence of chemical substance (yeast gene YLR378C): 1.6; The level of expressed mRNA in the presence of chemical substance/The level of expressed mRNA in the absence of chemical substance (yeast gene YML116W): 0.8; The level of expressed mRNA in the presence of chemical substance/The level of expressed mRNA in the absence of chemical substance (yeast gene YMR162C): 0.9; The level of expressed mRNA in the presence of chemical substance/The level of expressed mRNA in the absence of chemical substance (yeast gene YNL055C): 2.4; The level of expressed mRNA in the presence of chemical substance/The level of expressed mRNA in the absence of chemical substance (yeast gene YNR072W): 1.5; The level of expressed mRNA in the presence of chemical substance/The level of expressed mRNA in the absence of chemical substance (yeast gene YOL119C): 1.6; The level of expressed mRNA in the presence of chemical substance/The level of expressed mRNA in the absence of chemical substance (yeast gene YOL156W): 1.7; The level of expressed mRNA in the presence of chemical substance/The level of expressed mRNA in the absence of chemical substance (yeast gene YOL158C): 1.4; The level of expressed mRNA in the presence of chemical substance/The level of expressed mRNA in the absence of chemical substance (yeast gene YOL163W): 2.4; The level of expressed mRNA in the presence of chemical substance/The level of expressed mRNA in the absence of chemical substance (yeast gene YOR035C): 2.5; The level of expressed mRNA in the presence of chemical substance/The level of expressed mRNA in the absence of chemical substance (yeast gene YOR130C): 2.1; The level of expressed mRNA in the presence of chemical substance/The level of expressed mRNA in the absence of chemical substance (yeast gene YOR153W): 11.8; The level of expressed mRNA in the presence of chemical substance/The level of expressed mRNA in the absence of chemical substance (yeast gene YOR270C): 1.3; The level of expressed mRNA in the presence of chemical substance/The level of expressed mRNA in the absence of chemical substance (yeast gene YOR273C): 2.6; The level of expressed mRNA in the presence of chemical substance/The level of expressed mRNA in the absence of chemical substance (yeast gene YOR316C): 1.6; The level of expressed mRNA in the presence of chemical substance/The level of expressed mRNA in the absence of chemical substance (yeast gene YOR332W): 2.2; The level of expressed mRNA in the presence of chemical substance/The level of expressed mRNA in the absence of chemical substance (yeast gene YPL036W): 0.3; The level of expressed mRNA in the presence of chemical substance/The level of expressed mRNA in the absence of chemical substance (yeast gene YPL134C): 1.0; The level of expressed mRNA in the presence of chemical substance/The level of expressed mRNA in the absence of chemical substance (yeast gene YPL265W): 1.1; The level of expressed mRNA in the presence of chemical substance/The level of expressed mRNA in the absence of chemical substance (yeast gene YPL271W): 1.2; The level of expressed mRNA in the presence of chemical substance/The level of expressed mRNA in the absence of chemical substance (yeast gene YPR124W): 0.6; The level of expressed mRNA in the presence of chemical substance/The level of expressed mRNA in the absence of chemical substance (yeast gene YPR194C): 1.0
